Test results taken from patent US4526893A, “Isocarbostyril derivatives” (priority 1982, dated 1985).
Like-named read-outs stand apart in the source and are kept apart here.

What was measured:
[1] = test system: spontaneously hypertensive rats; assay: Antihypertensive effect on the spontaneously hypertensive rats; type: in vivo, rat; settings: 30 mg/kg, single oral administration, SHR, average blood pressure by aortic cannula
Method: Antihypertensive effect on the spontaneously hypertensive rats Five spontaneous rats (SHR), showing more than […] of systolic blood pressure were used. After a single oral administration, antihypertensive activity of the corresponding compound was evaluated in terms of a decrease in average blood pressure measured by means of a cannula embedded in the aorta.

[2] = molecular target: T1, right artrium of guinea pig (Cavia porcellus, UniProt H0W3H1); assay: β-blocking effect: antagonism of increase of beat rate of right atrium of guinea pig caused by isoproterenol; type: cell-based
T1 construct: beat rate of a right artrium of guinea pig; from tissue; host or cells: guinea pig right atrium
T1 sequence (H0W3H1 1-470): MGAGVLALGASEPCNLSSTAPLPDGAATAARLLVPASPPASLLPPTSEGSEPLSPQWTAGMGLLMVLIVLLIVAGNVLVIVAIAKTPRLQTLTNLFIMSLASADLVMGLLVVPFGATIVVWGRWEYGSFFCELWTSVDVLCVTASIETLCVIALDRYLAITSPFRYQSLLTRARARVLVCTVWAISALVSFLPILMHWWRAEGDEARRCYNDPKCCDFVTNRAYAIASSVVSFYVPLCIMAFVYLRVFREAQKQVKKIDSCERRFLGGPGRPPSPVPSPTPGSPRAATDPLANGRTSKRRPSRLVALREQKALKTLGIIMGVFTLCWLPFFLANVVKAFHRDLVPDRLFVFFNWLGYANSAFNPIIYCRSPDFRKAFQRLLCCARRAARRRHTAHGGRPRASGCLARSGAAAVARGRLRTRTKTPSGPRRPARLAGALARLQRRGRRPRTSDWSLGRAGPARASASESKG
Method: This was evaluated in terms of the effect antagonizing an increase of beat rate of a right artrium of guinea pig caused by isoproterenol. Efficiency of blocking by the corresponding compound is expressed in pA2 value (see Van Bossum, Arch. int. Pharmacodyn. Ther. 143, 299, 1963).

aorta of rat = molecular target: T2, aorta of rat (Rattus norvegicus, UniProt P23944); assay: cell-based
T2 sequence (P23944 1-561): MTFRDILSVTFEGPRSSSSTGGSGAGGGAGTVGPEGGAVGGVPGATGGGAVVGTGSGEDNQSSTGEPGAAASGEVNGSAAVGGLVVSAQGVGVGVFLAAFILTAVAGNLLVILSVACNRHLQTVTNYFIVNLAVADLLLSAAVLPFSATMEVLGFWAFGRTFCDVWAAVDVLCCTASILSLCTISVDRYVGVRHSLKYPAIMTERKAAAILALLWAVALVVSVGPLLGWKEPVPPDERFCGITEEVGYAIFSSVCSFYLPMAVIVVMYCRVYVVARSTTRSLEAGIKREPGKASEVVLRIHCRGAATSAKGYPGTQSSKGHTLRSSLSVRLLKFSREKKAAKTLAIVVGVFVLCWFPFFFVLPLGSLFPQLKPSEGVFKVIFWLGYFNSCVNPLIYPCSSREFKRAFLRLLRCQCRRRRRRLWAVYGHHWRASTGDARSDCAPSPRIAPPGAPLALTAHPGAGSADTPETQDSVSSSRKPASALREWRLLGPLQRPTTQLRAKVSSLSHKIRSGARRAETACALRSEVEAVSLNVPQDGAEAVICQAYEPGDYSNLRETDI

[3] = Acute toxicity of active compounds (LD50); settings: in vivo
Source text: Beta-blocking agents hitherto known have to be given to hypertensive patients for some period before desirable effects are obtained.

[4] = clinical use; cited from earlier work
heart rate = assay: Influence on the heart rate in unanaesthetized dogs; type: in vivo, dog; settings: 10 mg/kg oral
Method: 4. Influence on the heart rate This was measured in dogs under unanaesthesized condition after oral administration of the corresponding compound.

[5] = pA2 vs isoproterenol, guinea pig right atrium, read-out: β-Blocking effect (pA2) (converted)
[6] = pA2 vs phenylephrine, rat aorta, read-out: α-Blocking effect (pA2) (converted)

Row | Structure (SMILES) | Antihypertensive effect: decrease in blood pressure [1] | Kb [2, 5] | Kb (aorta of rat; [6]) | LD50 ([3]; iv, I.V., read-out: LD50 I.V.) | LD50 ([3]; po, P.O., read-out: LD50 P.O.) | orthostatic hypotension (in words) [4] | Kb [2] | Kb (aorta of rat) | Influence on heart rate: change (heart rate)
1 | CC(COc1ccccc1)NCC(O)COc1c[nH]c(=O)c2ccccc12.Cl (centres unmarked) [4-[3-(1-methyl-2-phenoxyethyl-amino)-2-hydroxypropoxy]isocarbostyril hydrochloride] | 15 mm Hg | 13.2 nM | 26.9 nM | – | – | – | – | – | –
2 | CC(COc1ccc([N+](=O)[O-])cc1)NCC(O)COc1c[nH]c(=O)c2ccccc12.Cl (centres unmarked) [4-[3-{1-methyl-2-(4-nitrophenoxy)ethylamino}-2-hydroxypropoxy]isocarbostyril hydrochloride] | 17 mm Hg | 37.2 nM | – | – | – | – | – | – | –
3 | COc1ccc(OCC(C)NCC(O)COc2c[nH]c(=O)c3ccccc23)c(OC)c1.Cl (centres unmarked) [4-[3-{2-(2,4-dimethoxyphenoxy)-1-methylethylamino}-2-hydroxypropoxy]isocarbostyril hydrochloride] | 32 mm Hg | 5.5 nM | 63.1 nM | 118 mg/kg | > 2000 mg/kg | – | – | – | –
4 | CC(COc1ccccc1C(N)=O)NCC(O)COc1c[nH]c(=O)c2ccccc12 (centres unmarked) [4-[3-{2-(2-carbamoylphenoxy)-1-methylethylamino}-2-hydroxypropy]isocarbostyril] | 10 mm Hg | 14.8 nM | – | – | – | – | – | – | –
5 | COc1ccccc1OCC(C)NCC(O)COc1c[nH]c(=O)c2ccccc12.Cl (centres unmarked) [4-[3-{2-(2-methoxyphenoxy)-1-methylethylamino}-2-hydroxypropoxy]isocarbostyril hydrochloride] | 35 mm Hg | 10.7 nM | 19.5 nM | – | – | – | – | – | –
6 | CC(COc1ccc(N)cc1)NCC(O)COc1c[nH]c(=O)c2ccccc12.Cl (centres unmarked) [4-[3-{2-(4-aminophenoxy)-1-methylethylamino}-2-hydroxypropoxy]isocarbostyril hydrochloride] | 31 mm Hg | 7.24 nM | – | – | – | – | – | – | –
7 | CC(COc1ccc(N)cc1)NCC(O)COc1c[nH]c(=O)c2ccccc12 (centres unmarked) [4-[3-{2-(4-aminophenoxy)-1-methylethylamino}-2-hydroxypropoxy]isocarbostyril] | – | – | – | 77.4 mg/kg | > 2000 mg/kg | – | – | – | –
8 | CC(COc1ccc(O)cc1)NCC(O)COc1c[nH]c(=O)c2ccccc12 (centres unmarked) [4-[3-{2-(4-hydroxyphenoxy)-1-methylethylamino{-2-hydroxy-propoxy]isocarbostyril] | 26 mm Hg | 2.95 nM | 102 nM | 163 mg/kg | > 2000 mg/kg | – | – | – | –
9 | COc1ccc(OCC(C)NCC(O)COc2c[nH]c(=O)c3ccccc23)cc1.Cl (centres unmarked) [4-[3-{2-(4-methoxyphenoxy)-1-methylethylamino}-2-hydroxypropoxy]isocarbostyril hydrochloride] | 21 mm Hg | 9.55 nM | – | 137 mg/kg | > 2000 mg/kg | – | – | – | –
10 | CC(CCc1ccccc1)NCC(O)c1ccc(O)c(C(N)=O)c1 (centres unmarked) [Labetalol, reference compound] | 31 mm Hg | – | – | – | – | serious adverse reaction | 38 nM | 41.7 nM | Increase
11 | CC(C)NCC(O)COc1cccc2ccccc12 (centres unmarked) [Propranolol, reference compound] | 3 mm Hg | – | – | – | – | – | – | – | Decrease
